Several values for one entry are separate records, joined by “and”; a condition that tells them apart may be missing. Equal values may be shown once.
biological target: catD / beta-secretase (BACE); test: CatD/BACE selectivity (ratio of IC50 values); format: biochemical; details: each value is an average of four experimental runs; multiple values = more than one experiment
Method: (§1) Selectivity was calculated as a ratio of inhibition (IC50) values in which the inhibition of beta-secretase was compared to the inhibition of other aspartyl proteases.
(§2) In the following examples, each value is an average of four experimental runs and multiple values for one compound indicate that more than one experiment was conducted.

SMILES	IC50 catD/IC50 BACE
COC(=O)NC1CCC(NCC(O)C(Cc2cc(F)cc(F)c2)NC(C)=O)(c2cccc(C(C)(C)C)c2)CC1 (single isomer, unassigned) [196A-37 Diastereomer A, methyl 4-(3-acetamido-4-(3,5-difluorophenyl)-2-hydroxybutylamino)-4-(3-tert-butylphenyl)cyclohexylcarbamate]	7.7
CC(=O)NC(Cc1cc(F)cc(F)c1)C(O)CNC1(c2cccc(C(C)(C)C)c2)CCC(NC=O)CC1 (single isomer, unassigned) [196A-43 Diastereomer A, N-(4-(1-(3-tert-butylphenyl)-4-formamidocyclohexylamino)-1-(3,5-difluorophenyl)-3-hydroxybutan-2-yl)acetamide]	84.5

biological target: catE / beta-secretase (BACE); test: CatE/BACE selectivity (ratio of IC50 values); format: biochemical; details: each value is an average of four experimental runs; multiple values = more than one experiment
Method: as §1
Selectivity is reported as the ratio of IC50(catE):IC50(BACE).
as §2

SMILES	IC50 catE/IC50 BACE
CC(=O)NC(Cc1cc(F)cc(F)c1)C(O)CNC1(c2cccc(C(C)(C)C)c2)CCC(O)(CO)CC1 (single isomer, unassigned) [196B-28 Diastereomer A, N-[3-[1-(3-tert-Butyl-phenyl)-4-hydroxy-4-hydroxymethyl-cyclohexylamino]-1-(3,5-difluoro-benzyl)-2-hydroxy-propyl]-acetamide]	>7.4
CONC1CCC(NCC(O)C(Cc2cc(F)cc(F)c2)NC(C)=O)(c2cccc(C(C)(C)C)c2)CC1 (single isomer, unassigned) [196B-12 Diastereomer B, N-(4-(1-(3-tert-butylphenyl)-4-(methoxyamino)cyclohexylamino)-1-(3,5-difluorophenyl)-3-hydroxybutan-2-yl)acetamide]	12.5
CC(=O)NC(Cc1cc(F)cc(F)c1)C(O)CNC1(c2cccc(C(C)(C)C)c2)CCC(C#N)CC1 (centres unmarked) [Example 196B-41, N-[3-[1-(3-tert-Butyl-phenyl)-4-cyano-cyclohexylamino]-1-(3,5-difluoro-benzyl)-2-hydroxy-propyl]-acetamide]	2.5
CC(=O)NC1CCC(NCC(O)C(Cc2cc(F)cc(F)c2)NC(C)=O)(c2cccc(C(C)(C)C)c2)CC1 (single isomer, unassigned) [196B-23 Diastereomer A, N-[3-[4-Acetylamino-1-(3-tert-butyl-phenyl)-cyclohexylamino]-1-(3,5-difluoro-benzyl)-2-hydroxy-propyl]-acetamide]	29.5
CNC(=O)NC1CCC(NCC(O)C(Cc2cc(F)cc(F)c2)NC(C)=O)(c2cccc(C(C)(C)C)c2)CC1 (single isomer, unassigned) [196B-39 Diastereomer A, 1-(4-(3-acetamido-4-(3,5-difluorophenyl)-2-hydroxybutylamino)-4-(3-tert-butylphenyl)cyclohexyl)-3-methylurea]	>1.3
CC(=O)NC(Cc1cc(F)cc(F)c1)C(O)CNC1(c2cccc(C(C)(C)C)c2)CCC(N)CC1 (single isomer, unassigned) [196B-19 Diastereomer B, N-(4-(1-(3-tert-butylphenyl)-4-aminocyclohexylamino)-1-(3,5-difluorophenyl)-3-hydroxybutan-2-yl)acetamide]	>8.4
CC(=O)NC(Cc1cc(F)cc(F)c1)C(O)CNC1(c2cccc(C(C)(C)C)c2)CCCN(C)C1 (centres unmarked) [Example 196B-32, N-(4-(3-(3-tert-butylphenyl)-1-methylpiperidin-3-ylamino)-1-(3,5-difluorophenyl)-3-hydroxybutan-2-yl)acetamide]	>2,0
CC(=O)NC(Cc1cc(F)cc(F)c1)C(O)CNC1(c2cccc(-c3ccsc3)c2)CCC(=O)CC1 (centres unmarked) [Example 196B-10, N-(1-(3,5-difluorophenyl)-3-hydroxy-4-(4-oxo-1-(3-(thiophen-3-yl)phenyl)cyclohexylamino)butan-2-yl)acetamide]	5.6
CSC1CCC(NCC(O)C(Cc2cc(F)cc(F)c2)NC(C)=O)(c2cccc(C(C)(C)C)c2)CC1 (single isomer, unassigned) [196B-14 Diastereomer A, N-[3-[1-(3-tert-Butyl-phenyl)-4-methylsulfanyl-cyclohexylamino]-1-(3,5-difluoro-benzyl)-2-hydroxy-propyl]-acetamide]	5.5 and 3.4 and 2.9
CC(=O)NC(Cc1cc(F)cc(F)c1)C(O)CNC1(c2cccc(C(C)(C)C)c2)CCC(N(O)C(C)=O)CC1 (single isomer, unassigned) [196B-31 Diastereomer A, N-(4-(3-acetamido-4-(3,5-difluorophenyl)-2-hydroxybutylamino)-4-(3-tert-butylphenyl)cyclohexyl)-N-hydroxyacetamide]	13.0
CC(=O)NC(Cc1ccc(O)c(F)c1)C(O)CNC1(c2cccc(C(C)C)c2)CCCCC1 (centres unmarked) [Example 196B-1, N-{1-(3-Fluoro-4-hydroxy-benzyl)-2-hydroxy-3[1-(3-isopropyl-phenyl)-cyclohexylamino]-propyl}-acetamide]	3.2
CC(=O)NC(Cc1cc(F)cc(F)c1)C(O)CNC1(c2cccc(C(C)(C)C)c2)CCC(NS(C)(=O)=O)CC1 (single isomer, unassigned) [196B-35 Diastereomer B, N-(4-(1-(3-tert-butylphenyl)-4-(methylsulfonamido)cyclohexylamino)-1-(3,5-difluorophenyl)-3-hydroxybutan-2-yl)acetamide]	>3.0
CC(=O)NC(Cc1cc(F)cc(F)c1)C(O)CNC1(c2cccc(C(C)(C)C)c2)CCC(C(F)(F)F)CC1 (single isomer, unassigned) [196B-22 Diastereomer B, N-(4-(1-(3-tert-butylphenyl)-4-(trifluoromethyl)cyclohexylamino)-1-(3,5-difluorophenyl)-3-hydroxybutan-2-yl)acetamide]	2.5
CC(=O)NC(Cc1cc(F)cc(F)c1)C(O)CNC1(c2cccc(C(C)C)c2)CCC(=O)CC1 (centres unmarked) [Example 196B-2, N-{1-(3,5-Difluoro-benzyl)-2-hydroxy-3-[1-(3-isopropyl-phenyl)-4-oxo-cyclohexylamino]-propyl}-acetamide]	3.7
CNC(=O)NC1CCC(NCC(O)C(Cc2cc(F)cc(F)c2)NC(C)=O)(c2cccc(C(C)(C)C)c2)CC1 (single isomer, unassigned) [196B-38 Diastereomer B, 1-(4-(3-acetamido-4-(3,5-difluorophenyl)-2-hydroxybutylamino)-4-(3-tert-butylphenyl)cyclohexyl)-3-methylurea]	>3.5
CC(=O)NC(Cc1cc(F)cc(F)c1)C(O)CNC1(c2cccc(-n3cccn3)c2)CCC2(CC1)OCCO2 (centres unmarked) [Example 196B-13, N-{1-(3,5-Difluoro-benzyl)-2-hydroxy-3-[8-(3-pyrazol-1-yl-phenyl)-1,4-dioxa-spiro[4.5]dec-8-ylamino]-propyl}-acetamide]	2.5
CONC1CCC(NCC(O)C(Cc2cc(F)cc(F)c2)NC(C)=O)(c2cccc(C(C)(C)C)c2)CC1 (single isomer, unassigned) [196B-11 Diastereomer A, N-(4-(1-(3-tert-butylphenyl)-4-(methoxyamino)cyclohexylamino)-1-(3,5-difluorophenyl)-3-hydroxybutan-2-yl)acetamide]	7.4
CNC1CCC(NCC(O)C(Cc2cc(F)cc(F)c2)NC(C)=O)(c2cccc(C(C)(C)C)c2)CC1 (single isomer, unassigned) [196B-17 Diastereomer B, N-(4-(1-(3-tert-butylphenyl)-4-(methylamino)cyclohexylamino)-1-(3,5-difluorophenyl)-3-hydroxybutan-2-yl)acetamide]	1.8
